Three molecules from patent US20260174875A1 (Novo Nordisk A/S, priority 2023, published 2026) can be followed below.

A short description of this data set: Chemical stability assessment in formulation (UPLC-UV-MS purity loss at 37° C.). The format is physicochemical. Conditions: 8 mM phosphate buffer pH 7.4, 1 mg/mL, 2 weeks. The procedure: The assay was performed to investigate the extend of chemical degradation in vitro over time upon incubation at 37° C. for a period of 2 weeks.
Peptide solutions were prepared by dissolving freeze-dried powder in 8 mM phosphate buffer pH 7.4 to a target of 1 mg/mL. The pH of peptide solutions was adjusted to 7.4 with 0.02 M HCl or 0.02 M NaOH. Samples were filled in Agilent HPLC vials with fixed insert. Vials were capped to prevent evaporation. The HPLC vials were incubated at 37° C. and samples were withdrawn at different time points over a period of 2 weeks, flash frozen at −80° C., and stored at −20° C. until analysis.
A flow-rate of 100 μL/min was delivered with a Binary solvent manager pump having 0.1% formic acid in water as solvent A and 0.1% formic acid in acetonitrile as solvent B. Gradient elution was carried out using 20% B from 0 to 2 min followed by 20 to 50% B from 2 to 20 min in a total run time of 30 min.

Take `CC[C@H](C)[C@H](NC(=O)[C@H](CCC(=O)O)NC(=O)[C@H](CCC(=O)O)NC(=O)[C@H](CC(C)C)NC(=O)[C@H](CC(C)C)NC(=O)[C@H](CCCCNC(=O)COCCOCCNC(=O)COCCOCCNC(=O)CC[C@H](NC(=O)CCCCCCCCCCCCCCCCCCC(=O)O)C(=O)O)NC(=O)[C@H](CO)NC(=O)[C@H](Cc1ccc(O)cc1)NC(=O)[C@H](CC(=O)O)NC(=O)[C@H](CO)NC(=O)[C@@H](NC(=O)[C@H](Cc1ccccc1)NC(=O)[C@@H](NC(=O)CNC(=O)[C@H](CCC(=O)O)NC(=O)C(C)(C)NC(=O)[C@@H](N)Cc1ccc(O)cc1)[C@@H](C)O)[C@@H](C)O)C(=O)N[C@@H](C)C(=O)N[C@@H](C)C(=O)N[C@@H](CCCNC(=N)N)C(=O)N[C@@H](CCC(=O)O)C(=O)N[C@@H](Cc1ccccc1)C(=O)N[C@H](C(=O)N[C@@H](CCC(=O)O)C(=O)N[C@@H](Cc1c[nH]c2ccccc12)C(=O)N[C@@H](CC(C)C)C(=O)N[C@@H](CC(C)C)C(=O)N[C@@H](C)C(=O)NCC(=O)NCC(=O)N1CCC[C@H]1C(=O)N[C@@H](CO)C(=O)N[C@@H](CO)C(=O)NCC(=O)N[C@@H](C)C(=O)NCC(=O)N[C@@H](CCC(N)=O)C(=O)N[C@@H](C)C(=O)N1CCC[C@H]1C(=O)NCC(=O)N[C@@H](CCC(N)=O)C(=O)N[C@@H](C)C(=O)N1CCC[C@H]1C(=O)NCC(=O)N[C@@H](C)C(=O)N[C@@H](CO)C(=O)N[C@@H](Cc1c[nH]cn1)C(=O)N[C@@H](CC(C)C)C(=O)N[C@@H](CO)C(=O)N[C@H](C(=O)N[C@@H](C)C(=O)N[C@@H](CCC(N)=O)C(=O)N[C@@H](CC(C)C)C(=O)NCC(=O)N[C@@H](CCCNC(=N)N)C(=O)N[C@@H](CC(C)C)C(=O)N[C@@H](CO)C(=O)N[C@@H](C)C(=O)N[C@@H](CCC(=O)O)C(=O)N[C@@H](CC(C)C)C(=O)N[C@@H](Cc1c[nH]cn1)C(=O)N[C@@H](CCC(N)=O)C(=O)N[C@@H](CC(C)C)C(=O)N[C@@H](C)C(=O)N[C@H](C(=O)N[C@@H](CC(C)C)C(=O)N1CCC[C@H]1C(=O)N[C@@H](CCCNC(=N)N)C(=O)N[C@H](C(=O)N[C@@H](CCC(=O)O)C(=O)N[C@H](C(=O)NCC(=O)N[C@@H](CO)C(=O)NCC(=O)N[C@@H](CO)C(=O)N1CCC[C@H]1C(N)=O)[C@@H](C)O)[C@@H](C)O)[C@@H](C)O)[C@@H](C)O)[C@@H](C)CC` [Compound 123]: the “Purity loss per week at 37° C.” value amounted to 1.0%.

On to `CC[C@H](C)[C@H](NC(=O)[C@H](CCC(=O)O)NC(=O)[C@H](CCC(=O)O)NC(=O)[C@H](CC(C)C)NC(=O)[C@H](CC(C)C)NC(=O)[C@H](CCCCNC(=O)COCCOCCNC(=O)COCCOCCNC(=O)CC[C@H](NC(=O)CCCCCCCCCCCCCCCCCCC(=O)O)C(=O)O)NC(=O)[C@H](CO)NC(=O)[C@H](Cc1ccc(O)cc1)NC(=O)[C@H](CC(=O)O)NC(=O)[C@H](CO)NC(=O)[C@@H](NC(=O)[C@H](Cc1ccccc1)NC(=O)[C@@H](NC(=O)CNC(=O)[C@H](CCC(=O)O)NC(=O)C(C)(C)NC(=O)[C@@H](N)Cc1ccc(O)cc1)[C@@H](C)O)[C@@H](C)O)C(=O)N[C@@H](C)C(=O)N[C@@H](C)C(=O)N[C@@H](CCCNC(=N)N)C(=O)N[C@@H](CCC(=O)O)C(=O)N[C@@H](Cc1ccccc1)C(=O)N[C@H](C(=O)N[C@@H](CCC(=O)O)C(=O)N[C@@H](Cc1c[nH]c2ccccc12)C(=O)N[C@@H](CC(C)C)C(=O)N[C@@H](CC(C)C)C(=O)N[C@@H](C)C(=O)NCC(=O)NCC(=O)N1CCC[C@H]1C(=O)N[C@@H](CO)C(=O)N[C@@H](CO)C(=O)NCC(=O)N[C@@H](C)C(=O)NCC(=O)N[C@@H](C)C(=O)N[C@@H](CO)C(=O)N[C@@H](Cc1c[nH]cn1)C(=O)N[C@@H](CC(C)C)C(=O)N[C@@H](CO)C(=O)N[C@H](C(=O)N[C@@H](C)C(=O)N[C@@H](CCC(N)=O)C(=O)N[C@@H](CC(C)C)C(=O)NCC(=O)N[C@@H](CCCNC(=N)N)C(=O)N[C@@H](CC(C)C)C(=O)N[C@@H](CO)C(=O)N[C@@H](C)C(=O)N[C@@H](CCC(=O)O)C(=O)N[C@@H](CC(C)C)C(=O)N[C@@H](Cc1c[nH]cn1)C(=O)N[C@@H](CCC(N)=O)C(=O)N[C@@H](CC(C)C)C(=O)N[C@@H](C)C(=O)N[C@H](C(=O)N[C@@H](CCC(=O)O)C(=O)N1CCC[C@H]1C(=O)N[C@@H](CCCNC(=N)N)C(=O)N[C@H](C(=O)N[C@@H](CCC(=O)O)C(=O)N[C@H](C(=O)NCC(=O)N[C@@H](CO)C(=O)NCC(=O)N[C@@H](CO)C(=O)N1CCC[C@H]1C(N)=O)[C@@H](C)O)[C@@H](C)O)[C@@H](C)O)[C@@H](C)O)[C@@H](C)CC` [Compound 184], for which the “Purity loss per week at 37° C.” value amounted to 1.0%.

As to `CC[C@H](C)[C@H](NC(=O)[C@H](CCC(=O)O)NC(=O)[C@H](CCC(=O)O)NC(=O)[C@H](CC(C)C)NC(=O)[C@H](CC(C)C)NC(=O)[C@@H](NC(=O)[C@H](CO)NC(=O)[C@H](Cc1ccc(O)cc1)NC(=O)[C@H](CC(=O)O)NC(=O)[C@H](CO)NC(=O)[C@@H](NC(=O)[C@H](Cc1ccccc1)NC(=O)[C@@H](NC(=O)CNC(=O)[C@H](CCC(=O)O)NC(=O)C(C)(C)NC(=O)[C@@H](N)Cc1ccc(O)cc1)[C@@H](C)O)[C@@H](C)O)[C@@H](C)CC)C(=O)N[C@@H](C)C(=O)N[C@@H](C)C(=O)N[C@@H](CCCNC(=N)N)C(=O)N[C@@H](CCC(=O)O)C(=O)N[C@@H](Cc1ccccc1)C(=O)N[C@H](C(=O)N[C@@H](CCC(=O)O)C(=O)N[C@@H](Cc1c[nH]c2ccccc12)C(=O)N[C@@H](CC(C)C)C(=O)N[C@@H](CC(C)C)C(=O)N[C@@H](C)C(=O)NCC(=O)NCC(=O)N1CCC[C@H]1C(=O)N[C@@H](CO)C(=O)N[C@@H](CO)C(=O)NCC(=O)N[C@@H](C)C(=O)NCC(=O)N[C@@H](CCC(N)=O)C(=O)N[C@@H](C)C(=O)N1CCC[C@H]1C(=O)NCC(=O)N[C@@H](CCC(N)=O)C(=O)N[C@@H](C)C(=O)N1CCC[C@H]1C(=O)NCC(=O)N[C@@H](C)C(=O)N[C@@H](CO)C(=O)N[C@@H](Cc1c[nH]cn1)C(=O)N[C@@H](CC(C)C)C(=O)N[C@@H](CO)C(=O)N[C@H](C(=O)N[C@@H](C)C(=O)N[C@@H](CCC(N)=O)C(=O)N[C@H](C(=O)N[C@@H](CCC(N)=O)C(=O)N[C@@H](CCCNC(=N)N)C(=O)N[C@@H](CC(C)C)C(=O)N[C@@H](CO)C(=O)N[C@@H](C)C(=O)N[C@@H](CCC(=O)O)C(=O)N[C@@H](CC(C)C)C(=O)N[C@@H](Cc1c[nH]cn1)C(=O)N[C@@H](CCCCNC(=O)COCCOCCNC(=O)COCCOCCNC(=O)CC[C@H](NC(=O)CCCCCCCCCCCCCCCCCCC(=O)O)C(=O)O)C(=O)N[C@@H](CC(C)C)C(=O)N[C@@H](C)C(=O)N[C@H](C(=O)N[C@@H](CCC(=O)O)C(=O)N1CCC[C@H]1C(=O)N[C@@H](CCCNC(=N)N)C(=O)N[C@H](C(=O)N[C@@H](CCC(=O)O)C(=O)N[C@H](C(=O)NCC(=O)N[C@@H](CO)C(=O)NCC(=O)N[C@@H](CO)C(=O)N1CCC[C@H]1C(N)=O)[C@@H](C)O)[C@@H](C)O)[C@@H](C)O)[C@@H](C)O)[C@@H](C)O)[C@@H](C)CC` [Compound 162], the “Purity loss per week at 37° C.” value was determined as 1.0%.
